In article PMC4986899 (RNA, 2016):

Target: T1, E. coli MetK (Escherichia coli, UniProt P0A817)
T1 sequence (P0A817 2-384): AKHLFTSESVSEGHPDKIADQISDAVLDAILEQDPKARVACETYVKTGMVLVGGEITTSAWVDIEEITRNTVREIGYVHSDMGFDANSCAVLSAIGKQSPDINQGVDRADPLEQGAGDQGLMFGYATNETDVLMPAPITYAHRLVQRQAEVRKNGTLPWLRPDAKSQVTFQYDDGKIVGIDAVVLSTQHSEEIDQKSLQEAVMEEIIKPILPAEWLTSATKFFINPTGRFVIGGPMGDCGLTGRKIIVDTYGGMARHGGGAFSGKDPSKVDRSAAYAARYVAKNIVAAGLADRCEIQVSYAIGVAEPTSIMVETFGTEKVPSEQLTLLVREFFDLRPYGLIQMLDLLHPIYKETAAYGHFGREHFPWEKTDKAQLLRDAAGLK
Experiment: preparative synthesis of […]-methyl S-adenosyl methionine
Assay type: biochemical
Settings: co-substrate 1 mM L-methionine methyl-13C; pH 8.2, 100 mM KCl, 10 mM MgCl2, 30 °C

Nc1ncnc2c1ncn2[C@@H]1O[C@H](COP(=O)(O)OP(=O)(O)OP(=O)(O)O)[C@@H](O)[C@H]1O [ATP]
preparative synthesis of 13C-methyl S-adenosyl methionine: synthesized from methionine and ATP by the E. coli MetK enzyme
